Data on one molecule can be found in patent publication US20180071354A1, “SELECTIVE BREEDING METHOD OF ANTITUMOR/ANTICANCER CAMELLIA SINENSIS STRAIN, AND TEA PRODUCT OF SUCH STRAIN” (FUJIAN AGRICULTURE AND FORESTRY UNIVERSITY, priority 2015, published 2018).

The assay deals with human cervical cancer cell line Hela. Description: In vitro antitumor/anticancer testing (CCK-8), Hela. It counts as cell-based. To be noted: 48 h. The method, then: Each of Tea Product 1 and Conventional Tea Product obtained in section A of this example was used to prepare test tea samples according to the method described below. A proper amount of the respective tea product was added into sterile water to prepare a stock solution with a concentration of 100 mg/mL, followed by using a membrane filter with a pore size of 0.22 μm to conduct vacuum filtration and sterilization. The resulting stock solution was diluted with a respective complete medium shown in Table 3 below to form test tea samples with different concentrations. In other words, the thus obtained test tea samples to be used for treating a respective cancer/tumor cell line shown in Table 3 were prepared using the same complete medium as that for the respective cancer/tumor cell line. […] Specifically, each of the aforesaid commercially available agents was subjected to the method described below to prepare comparative test samples. A proper amount of a respective commercially available agent was dissolved in phosphate-buffered saline (PBS) to prepare a stock solution with a concentration of 5 mg/mL, followed by using a membrane filter with a pore size of 0.22 μm to conduct vacuum filtration and sterilization. The resulting stock solution was diluted with a respective complete medium shown in Table 3 below to form comparative test samples with different concentrations. To be specific, the comparative test samples prepared from the respective commercially available agent have the concentrations shown in Table 2 below. The thus obtained comparative test samples to be used for treating a respective cancer/tumor cell line shown in Table 3 were prepared using the same complete medium as that for the respective cancer/tumor cell line. […] The cultivation of each cancer/tumor cell line is described as follows. […] Afterwards, a cell suspension having a cell density of 1.0×10^4 cells/mL was prepared. […] As experimental groups, the tumor/cancer cells of each cell line were treated with the test tea samples prepared from one or more of the tea products and the comparative test samples prepared from one or more of the commercially available agents as obtained in section B of this example (for more detailed information about the tea product(s) and the commercially available product (s) used to treat each cell line, please see Table 4 below). To be specific, 6 to 10 test tea samples prepared from the same tea product and having different concentrations, as well as 6 to 10 comparative test samples prepared from the same commercially available agent and having different concentrations, were utilized to treat the tumor/cancer cells of each cell line. For each experimental group, 6 repetitions of tumor/cancer treatment were performed. For the control group, 100 μL of PBS was added to a well containing the medium and the cancer/tumor cells of the respective cell line. For the blank group, 100 μL of PBS was added to a well containing a complete medium the same as that used for cultivation of the cancer/tumor cells of the respective cell line. After the treatment described above, cultivation was conducted in an incubator (37° C., 100% relative humidity, 5% CO2) for 48 hours. Subsequently, the liquid containing the medium and the sample in the well was removed, and a respective complete medium (shown in Table 3 above) containing 10% CCK-8 (Cell Counting Kit-8)(Dojindo Molecular Technologies, Inc., Cat. No. CK04-13) was added. Cultivation was performed in an incubator (37° C.) for 2 to 4 hours, followed by gently shaking.

For the molecule `O=C(O[C@@H]1Cc2c(O)cc(O)cc2O[C@@H]1c1cc(O)c(O)c(O)c1)c1cc(O)c(O)c(O)c1` [EGCG monomer, epigallocatechin gallate], the Percent growth inhibition reads like this: (0.3125 μg/mL) 4.13%; (0.625 μg/mL) −0.68%; (1.25 μg/mL) 1.08%; (2.5 μg/mL) −8.94%; (5 μg/mL) −6.50%; (10 μg/mL) −22.63%. Moreover, the Percent growth inhibition (20 μg/mL) is −20.22%, the Percent growth inhibition (40 μg/mL) is listed as −23.80% and the Percent growth inhibition (80 μg/mL) came out at 36.66%. Under “Hela”, the IC50 entry is reported as “IC50 (μg/mL) = 101.2”.
